# Test results: US8124744B2, “Macrolide derivatives” (Taisho Pharmaceutical Co., Ltd., priority 2006, dated 2012)
# How the values were obtained:
# MMP-9 production = settings: background art, Non-Patent Document 3; read-out: 50% inhibitory concentration (IC50) value, MMP-9 production; cited from earlier work
# pro MMP-9 protein = test: Inhibitory activity against proMMP-9 protein production (TNF α-stimulated mouse peritoneal exudate cells, ELISA); assay type: cell-based, C57BL/6J mice; settings: relative activity when the value of Comparative Agent 1 (IC50 = 10.04 ± 4.11 μM) is 10, on the increase of pro MMP-9 by TNF α 25 ng/ml, 24 hours, read-out: IC50 (μM)*
# Outline: (§1)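 Peritoneal exudate cells came from male C57BL/6J mice 3 days after i.p. zymosan A; cultured cells got compound (0.02–20 μM final) 1 h before TNFα (25 ng/ml) and supernatant pro MMP-9 was measured by ELISA after 24 h for IC50 against the TNFα-induced increase. MIC was measured against S. aureus ATCC29213.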
# [1] = system: Staphylococcus aureus ATCC29213; test: Minimal inhibitory concentration (MIC); assay type: cell-based
# Outline: as §1
IC50 (pro MMP-9 protein) [µM],MIC [1] [µg/mL],SMILES,IC50 (MMP-9 production) [µM]
4.63,128,"CC[C@H]1OC(=O)[C@H](C)[C@@H](O[C@H]2C[C@@](C)(OC)[C@@H](O)[C@H](C)O2)[C@H](C)[C@@H](O[C@@H]2O[C@H](C)C[C@@H](N3CCOCC3)[C@@H]2N(C)C)[C@@](C)(OC)C[C@@H](C)C(=O)[C@H](C)[C@@H](O)[C@H]1C [Example 210, 3′-dedimethylamino-2′-deoxy-2′-dimethylamino-3′-(4-morpholino)-6-O-methylerythromycin B]",–
2.73,> 128,"CC[C@H]1OC(=O)[C@H](C)[C@@H](O[C@H]2C[C@@](C)(OC)[C@@H](OC(C)=O)[C@H](C)O2)[C@H](C)[C@@H](O[C@@H]2O[C@H](C)C[C@H](N(C)CCN(C)C)[C@H]2O)[C@@](C)(OC)C[C@@H](C)C(=O)[C@H](C)[C@@H](O)[C@]1(C)O [Example 214, 4″-O-acetyl-3′-N-demethyl-3′-N-(2-dimethylaminoethyl)-6-methylerythromycin A]",–
3.38,> 128,"CC[C@H]1OC(=O)[C@H](C)[C@@H](O[C@H]2C[C@@](C)(OC)[C@@H](OC(C)=O)[C@H](C)O2)[C@H](C)[C@@H](O[C@@H]2O[C@H](C)C[C@@H](N(C)Cc3cccnc3)[C@@H]2N(C)C)[C@@](C)(OC)C[C@@H](C)C(=O)[C@H](C)[C@@H](O)[C@]1(C)O [Example 189, 4″-O-acetyl-3′-N-demethyl-2′-deoxy-2′-dimethylamino-3′-N-(3-pyridylmethyl)-O-methylerythromycin A]",–
5.03,> 128,"CC[C@H]1OC(=O)[C@H](C)[C@@H](OC(C)=O)[C@H](C)[C@@H](O[C@@H]2O[C@H](C)C[C@@H](N3CCOCC3)[C@@H]2N(C)C)[C@@](C)(OC)C[C@@H](C)C(=O)[C@H](C)[C@@H](O)[C@]1(C)O [Example 203, 3-O-acetyl-5-O— (3′-dedimethylamino-2′-deoxy-2′-dimethylamino-3′-(4-morpholino)desosaminyl)-6-O-methylerythronolide A]",–

# Second part, the compound before the results:
SMILES,IC50 (pro MMP-9 protein) [µM],MIC [1] [µg/mL],IC50 (MMP-9 production) [µM]
CC[C@H]1OC(=O)[C@H](C)[C@@H](O[C@H]2C[C@@](C)(OC)[C@@H](O)[C@H](C)O2)[C@H](C)[C@@H](O[C@@H]2O[C@H](C)C[C@H](N(C)C)[C@H]2O)[C@](C)(O)C[C@@H](C)/C(=N\OCOCCOC)[C@H](C)[C@@H](O)[C@]1(C)O [roxithromycin],–,–,≥ 10
"CC[C@H]1OC(=O)[C@H](C)C(=O)[C@H](C)[C@@H](O[C@@H]2O[C@H](C)C[C@H](N(C)C)[C@H]2OC)[C@@](C)(OC)C[C@@H](C)C(=O)[C@H](C)[C@@H](O)[C@]1(C)O [Example 155, 3-deoxy-3-oxo-5-O-(2′-O-methyldesosaminyl)-6-O-methylerythronolide A]",9.7,> 128,–
"CC[C@H]1OC(=O)[C@H](C)[C@@H](O[C@H]2C[C@@](C)(OC)[C@@H](O)[C@H](C)O2)[C@H](C)[C@@H](O[C@@H]2O[C@H](C)C[C@H](N(C)CCCO)[C@H]2OC)[C@@](C)(OC)C[C@@H](C)C(=O)[C@H](C)[C@@H](O)[C@]1(C)O [Example 132, 3′-N-demethyl-3′-N-(3-hydroxypropyl)-6,2′-di-O-methylerythromycin A]",2.52,> 128,–
"CC[C@H]1OC(=O)[C@H](C)[C@@H](O[C@H]2C[C@@](C)(OC)[C@@H](OC(C)=O)[C@H](C)O2)[C@H](C)[C@@H](O[C@@H]2O[C@H](C)C[C@@H](N3CCC(O)CC3)[C@@H]2N(C)C)[C@@](C)(OC)C[C@@H](C)C(=O)[C@H](C)[C@@H](O)[C@]1(C)O [Example 164, 4″-O-acetyl-3′-dedimethylamino-2′-deoxy-2′-dimethylamino-3′-(4-hydroxypiperidin-1-yl)-6-O-methylerythromycin A]",2.77,> 128,–
"CC[C@H]1OC(=O)[C@H](C)[C@@H](O[C@H]2C[C@@H](C)[C@H](O)[C@](C)(OC)O2)[C@H](C)[C@@H](O[C@@H]2O[C@H](C)C[C@H](N(C)CCN(C)C)[C@H]2OC)[C@@](C)(OC)C[C@@H](C)C(=O)[C@H](C)[C@@H](O)[C@]1(C)O [Example 104, 3′-N-demethyl-3′-N-(2-dimethylaminoethyl)-6,2′-di-O-methylerythromycin A]",5,> 128,–
"CC[C@H]1OC(=O)[C@H](C)[C@@H](O[C@H]2C[C@@](C)(OC)[C@@H](OC(C)=O)[C@H](C)O2)[C@H](C)[C@@H](O[C@@H]2O[C@H](C)C[C@H](N(C)CCCOC(C)=O)[C@H]2OC)[C@@](C)(OC)C[C@@H](C)C(=O)[C@H](C)[C@@H](O)[C@]1(C)O [Example 136, 4″-O-acetyl-3′-N-demethyl-3′-N-(3-acetoxypropyl)-6,2′-di-O-methylerythromycin A]",2.12,> 128,–
"CC[C@H]1OC(=O)[C@H](C)[C@@H](O[C@H]2C[C@@](C)(OC)[C@@H](OC(C)=O)[C@H](C)O2)[C@H](C)[C@@H](O[C@@H]2O[C@H](C)C[C@@H](N3CC[C@H](O)C3)[C@@H]2N(C)C)[C@@](C)(OC)C[C@@H](C)C(=O)[C@H](C)[C@@H](O)[C@]1(C)O [Compound X of Example 200, 4″-O-acetyl-3′-dedimethylamino-2′-deoxy-2′-dimethylamino-3′-((S)-3-hydroxypyrrolidin-1-yl)-6-O-methylerythromycin A]",2.03,> 128,–
"CC[C@H]1OC(=O)[C@H](C)[C@@H](O[C@H]2C[C@@](C)(OC)[C@@H](O)[C@H](C)O2)[C@H](C)[C@@H](O[C@@H]2O[C@H](C)C[C@H](N(C)CCCN(C)C)[C@H]2OC)[C@@](C)(OC)C[C@@H](C)C(=O)[C@H](C)[C@@H](O)[C@]1(C)O [Example 130, 3′-N-demethyl-3′-N-(3-dimethylaminopropyl)-6,2′-di-O-methylerythromycin A]",1.33,> 128,–
"CC[C@H]1OC(=O)[C@H](C)[C@@H](O[C@H]2C[C@@](C)(OC)[C@@H](OC(C)=O)[C@H](C)O2)[C@H](C)[C@@H](O[C@@H]2O[C@H](C)C[C@@H](N3CC[C@@H](O)C3)[C@@H]2N(C)C)[C@@](C)(OC)C[C@@H](C)C(=O)[C@H](C)[C@@H](O)[C@]1(C)O [Compound Y of Example 200, 4″-O-acetyl-3′-dedimethylamino-2′-deoxy-2′-dimethylamino-3′-((R)-3-hydroxypyrrolidin-1-yl)-6-O-methylerythromycin A]",3.02,> 128,–
